Each block holds one molecule with its values, some of them ahead of it.
How the values were obtained:
[1] = molecular target: hCA II (Homo sapiens, UniProt P00918); experiment: biochemical
[2] = molecular target: T1, hCA XII (Homo sapiens, UniProt O43570); experiment: biochemical
[3] = molecular target: T2, hCA IX (Homo sapiens, UniProt Q16790); experiment: stop-flow CA inhibition assay, hCA IX; conditions: for S(I/IX) selectivity: ratio Ki hCA I / Ki hCA IX; for S(II/IX) selectivity: ratio Ki hCA II / Ki hCA IX
[4] = molecular target: T1, hCA XII; experiment: stop-flow CA inhibition assay, hCA XII; conditions: for S(I/XII) selectivity: ratio Ki hCA I / Ki hCA XII; for S(II/XII) selectivity: ratio Ki hCA II / Ki hCA XII
[5] = molecular target: hCA I (Homo sapiens, UniProt P00915); experiment: biochemical
Sequence of hCA I (P00915 whole entry): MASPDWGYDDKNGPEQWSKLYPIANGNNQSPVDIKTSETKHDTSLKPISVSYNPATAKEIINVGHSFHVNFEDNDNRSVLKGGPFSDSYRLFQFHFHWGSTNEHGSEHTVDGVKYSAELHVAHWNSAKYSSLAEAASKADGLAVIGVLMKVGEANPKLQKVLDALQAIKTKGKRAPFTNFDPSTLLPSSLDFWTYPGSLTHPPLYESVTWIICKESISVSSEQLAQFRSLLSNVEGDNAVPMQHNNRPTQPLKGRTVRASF

[6] = molecular target: T2, hCA IX; experiment: biochemical

T1 sequence (O43570 25-354): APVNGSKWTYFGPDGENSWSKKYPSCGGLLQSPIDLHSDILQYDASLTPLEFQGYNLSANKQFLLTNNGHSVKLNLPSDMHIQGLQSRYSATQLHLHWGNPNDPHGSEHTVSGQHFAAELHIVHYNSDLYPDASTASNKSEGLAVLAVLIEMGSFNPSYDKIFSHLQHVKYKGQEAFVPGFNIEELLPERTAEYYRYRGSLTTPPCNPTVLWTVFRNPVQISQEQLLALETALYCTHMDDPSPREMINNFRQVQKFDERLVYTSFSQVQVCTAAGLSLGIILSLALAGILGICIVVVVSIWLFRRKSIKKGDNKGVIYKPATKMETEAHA

Compound: NS(=O)(=O)c1ccc(NC(=O)Nc2cccc3ccccc23)cc1 [Compound 1, 4-[3-(Naphthalen-1-yl)ureido]benzenesulfonamide]
Ki [1]: 33.5 nM
Ki [2]: 15.5 nM
S(I/IX) selectivity [3]: 5.66
S(II/IX) selectivity [3]: 0.78
S(I/XII) selectivity [4]: 15.66
S(II/XII) selectivity [4]: 2.16
Ki [5]: 243 nM
Ki [6]: 42.9 nM

Compound: NS(=O)(=O)c1ccc(NC(=O)Nc2ccc(Cc3ccccc3)cc2)cc1 [Compound 2, 4-[3-(4-Benzylphenyl)ureido]benzenesulfonamide]
melting point: 230 to 232 °C

Compound: NS(=O)(=O)c1ccc(NC(=O)Nc2ccccc2Cc2ccccc2)cc1 [Compound 3]
melting point: 219 to 221 °C

Compound: COc1ccc(-c2ccccc2)cc1NC(=O)Nc1ccc(S(N)(=O)=O)cc1 [Compound 4]
Ki [1]: 5030 nM
melting point: 271 to 272 °C
Ki [5]: 6650 nM

Compound: COc1ccc(NC(=O)Nc2ccc(S(N)(=O)=O)cc2)cc1 [Compound 5]
melting point: 227 to 229 °C

Compound: COc1cccc(NC(=O)Nc2ccc(S(N)(=O)=O)cc2)c1 [Compound 6, 4-[3-(3-Methoxyphenyl)ureido]benzenesulfonamide]
Ki [2]: 90.4 nM
Ki [6]: 210 nM

Compound: NS(=O)(=O)c1ccc(NC(=O)NC(=O)c2ccccc2)cc1 [Compound 12, N-[(4-Sulfamoylphenyl)carbamoyl]benzamide]
Ki [1]: 209 nM
melting point: 262 to 264 °C
Ki [2]: 63.9 nM
S(I/IX) selectivity [3]: 4.57
S(II/IX) selectivity [3]: 1.01
S(I/XII) selectivity [4]: 14.84
S(II/XII) selectivity [4]: 3.27
Ki [5]: 949 nM
Ki [6]: 208 nM

Compound: CCOC(=O)c1ccc(NC(=O)Nc2ccc(S(N)(=O)=O)cc2)cc1 [Compound 13, Ethyl 4-[3-(4-sulfamoylphenyl)ureido]benzoate]
melting point: 261 to 263 °C

Compound: NS(=O)(=O)c1ccc(NC(=O)Nc2ccc(C(=O)O)cc2)cc1 [Compound 14, 4-[3-(4-Sulfamoylphenyl)ureido]benzoic acid]
melting point: 310 to 313 °C

Compound: NS(=O)(=O)c1ccc(NC(=O)Nc2cc(Cl)ccc2Oc2ccccc2)cc1 [Compound 15, 4-[3-(5-Chloro-2-phenoxyphenyl)ureido]benzenesulfonamide]
melting point: 209 °C

Continued, values first:

melting point: 240 to 241 °C
Compound: NS(=O)(=O)c1ccc(NC(=O)Nc2cccc(F)c2)cc1 [Compound 7, 4-[3-(3-Fluorophenyl)ureido]benzenesulfonamide]

melting point: 229 to 231 °C
Compound: CCNC(=O)Nc1ccc(S(N)(=O)=O)cc1 [Compound 8, 4-(3-Ethylureido)benzenesulfonamide]

melting point: 221 to 223 °C
Ki [2]: 45.9 nM
Ki [5]: 448 nM
Ki [6]: 184 nM
Compound: CC(C)NC(=O)Nc1ccc(S(N)(=O)=O)cc1 [Compound 9, 4-(3-Isopropylureido)benzenesulfonamide]

melting point: 194 to 196 °C
Compound: CCCCNC(=O)Nc1ccc(S(N)(=O)=O)cc1 [Compound 10, 4-(3-Butylureido)benzenesulfonamide]

melting point: 202 to 203 °C
Compound: CCCCCCNC(=O)Nc1ccc(S(N)(=O)=O)cc1 [Compound 11, 4-(3-Hexylureido)benzenesulfonamide]

Source: PMC10707797, “Ureidobenzenesulfonamides as Selective Carbonic Anhydrase I, IX, and XII Inhibitors” (Molecules, 2023)
